ChEMBL document CHEMBL1129353, “Synthesis and biological evaluation of N alpha-(4-amino-4-deoxy-10-methylpteroyl)-DL-4,4-difluoroornithine” (J Med Chem, 1996)

Tests used:
[1] = Dissociation constant was evaluated; format: physicochemical
[2] = molecular target: T1, Folylpolyglutamate synthase, mitochondrial (Homo sapiens, UniProt Q05932); test: Inhibitory activity against mammalian Folyl-polyglutamate synthase
T1 sequence (Q05932 whole entry): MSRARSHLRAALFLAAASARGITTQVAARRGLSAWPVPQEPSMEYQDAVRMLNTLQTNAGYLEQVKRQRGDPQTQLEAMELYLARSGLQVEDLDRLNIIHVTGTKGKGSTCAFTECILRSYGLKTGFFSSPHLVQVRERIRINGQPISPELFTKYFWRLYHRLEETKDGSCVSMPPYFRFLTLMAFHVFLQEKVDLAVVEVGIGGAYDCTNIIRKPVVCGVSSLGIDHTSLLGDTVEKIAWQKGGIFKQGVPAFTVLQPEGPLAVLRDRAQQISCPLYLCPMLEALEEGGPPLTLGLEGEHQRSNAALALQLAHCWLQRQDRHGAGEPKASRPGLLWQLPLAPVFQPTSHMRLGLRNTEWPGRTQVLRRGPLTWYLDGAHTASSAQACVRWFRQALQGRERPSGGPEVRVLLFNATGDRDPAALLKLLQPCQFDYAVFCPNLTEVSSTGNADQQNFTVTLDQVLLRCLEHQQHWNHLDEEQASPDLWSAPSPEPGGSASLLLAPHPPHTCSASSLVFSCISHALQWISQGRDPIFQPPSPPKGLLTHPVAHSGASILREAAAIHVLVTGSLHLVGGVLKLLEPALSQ

[3] = system: CCRF-CEM; test: cells; details: Homo sapiens, read-out: ED50
[4] = molecular target: T2, Dihydrofolate reductase (Homo sapiens, UniProt P00374); test: Inhibitory concentration against dihydrofolate reductase enzyme (DHFR) enzyme isolated from CCRF-CEM human leukemia cells.; format: cell-free
T2 sequence (P00374 whole entry): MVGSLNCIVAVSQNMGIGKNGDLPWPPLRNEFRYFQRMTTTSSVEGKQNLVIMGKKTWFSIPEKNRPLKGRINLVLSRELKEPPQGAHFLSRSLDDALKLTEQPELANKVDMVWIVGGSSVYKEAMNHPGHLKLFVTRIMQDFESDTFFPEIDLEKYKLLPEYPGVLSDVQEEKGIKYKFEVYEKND

[5] = molecular target: T1, Folylpolyglutamate synthase, mitochondrial; test: Inhibitory concentration against human Folyl-polyglutamate synthase isolated from CCRF-CEM human leukemia cells.; format: cell-free
[6] = molecular target: T2, Dihydrofolate reductase; test: Inhibitory concentration against dihydrofolate reductase enzyme (DHFR) enzyme isolated from CCRF-CEM human leukemia cells. value mentioned is from literature
[7] = system: CCRF-CEM; test: Inhibitory activity against growth of CCRF-CEM human leukemia cells. value mentioned is from literature; format: functional; details: read-out: ED50

| Ki [2] [nM] | SMILES | pKa [1] | EC50 [3] [nM] | IC50 [4] [nM] | IC50 [5] [µM] | IC50 [6] [nM] | EC50 [7] [nM] |
| --- | --- | --- | --- | --- | --- | --- | --- |
|  | NCC(F)(F)CC(N)C(=O)O (stereo unspecified) | 6.9 |  |  |  |  |  |
| 200 | NCCCC(NC(=O)c1ccc(NCC2CNc3nc(N)[nH]c(=O)c3N2)cc1)C(=O)O (stereo unspecified) |  |  |  |  |  |  |
|  | CN(Cc1cnc2nc(N)nc(N)c2n1)c1ccc(C(=O)NC(CC(F)(F)CN)C(=O)O)cc1 (stereo unspecified) |  | 93 | 1.3 | > 300 |  |  |
|  | CN(Cc1cnc2nc(N)nc(N)c2n1)c1ccc(C(=O)NC(CCCN)C(=O)O)cc1 (stereo unspecified) | 10.8 | 740 | 2.5 | 33 | 1 | 740 |
